Paper PMC11890061 (2025)

Key:
[1] = system: FAM-D-(UG)12 (RNA, G4) UGUGUGUGUGUGUGUGUGUGUGUG; experiment: EMSA competition; conditions: 150 mM KCl, 1 mM MgCl2; 25 mM Tris-HCl pH 7.5, 37 °C; 250 nM L-apt3.1 (L-RNA aptamer) displaced; 10 nM RNA
[2] = system: FAM-D-(UG)12 mut1 (RNA, single strand) UGUAUGUGUAUGUGUAUGUGUAUG; experiment: NMM staining of native gel; conditions: 150 mM KCl (gel: 50 mM potassium acetate); 10 mM Tris-HCl pH 7.5; 2.5 μM oligo; 1 μg/mL NMM highest tested; no band
[3] = system: FAM-D-(UG)12 mut2 (RNA, single strand) UGUGCGUGUGCGUGUGCGUGUGCG; experiment: NMM staining of native gel; conditions: 150 mM KCl (gel: 50 mM potassium acetate); 10 mM Tris-HCl pH 7.5; 2.5 μM oligo; 1 μg/mL NMM highest tested; no band
[4] = system: FAM-D-(TG)12 (DNA, single strand) TGTGTGTGTGTGTGTGTGTGTGTG; experiment: NMM staining of native gel; conditions: 150 mM KCl (gel: 50 mM potassium acetate); 10 mM Tris-HCl pH 7.5; 2.5 μM oligo; 1 μg/mL NMM highest tested; no band
[5] = system: D-apt3.1 (RNA, aptamer) GCCGCACUGGUGGGUCGGUGGGAAGCGGC; experiment: ligand fluorescence enhancement; conditions: 150 mM KCl; 10 mM LiCaco pH 7.0; 1 μM RNA, 1 μM ligand; higher in K+ than Li+
[6] = system: L-apt3.1 (L-RNA, aptamer, all L-ribonucleotides) GCCGCACUGGUGGGUCGGUGGGAAGCGGC; experiment: ligand fluorescence enhancement; conditions: 150 mM KCl; 10 mM LiCaco pH 7.0; 1 μM RNA, 1 μM ligand; higher in K+ than Li+
[7] = system: D-apt3.1b (RNA, aptamer) GCCGCACUUCUGGGGGGGUGGGAAGCGGC; experiment: ligand fluorescence enhancement; conditions: 150 mM KCl; 10 mM LiCaco pH 7.0; 1 μM RNA, 1 μM ligand; higher in K+ than Li+
[8] = system: D-apt3.1e (RNA, aptamer) GCCGCAAUGGUGGGUAGGUGGGAAGCGGC; experiment: ligand fluorescence enhancement; conditions: 150 mM KCl; 10 mM LiCaco pH 7.0; 1 μM RNA, 1 μM ligand; higher in K+ than Li+
[9] = system: D-apt3.1g (RNA, aptamer) GCCGCACUGGCGGGUCGGUGGGAAGCGGC; experiment: ligand fluorescence enhancement; conditions: 150 mM KCl; 10 mM LiCaco pH 7.0; 1 μM RNA, 1 μM ligand; higher in K+ than Li+
[10] = system: D-apt3.1h (RNA, aptamer) GCCGCACUGGUGGGUCGGUGGGGAGCGGC; experiment: ligand fluorescence enhancement; conditions: 150 mM KCl; 10 mM LiCaco pH 7.0; 1 μM RNA, 1 μM ligand; higher in K+ than Li+
[11] = system: D-apt3.1i (RNA, aptamer) GCCGCACUGGUGGGUCGGUGGGAGGCGGC; experiment: ligand fluorescence enhancement; conditions: 150 mM KCl; 10 mM LiCaco pH 7.0; 1 μM RNA, 1 μM ligand; higher in K+ than Li+
[12] = system: D-(UG)12 (RNA, G4) UGUGUGUGUGUGUGUGUGUGUGUG; experiment: fluorescence titration (microplate reader); conditions: 150 mM KCl, 1 mM MgCl2; 25 mM Tris-HCl pH 7.5, 37 °C; 100 nM NMM, RNA varied; one-site fit

IC50 [1] | binding [2] | binding [3] | binding [4] | binding [5] | binding [6] | binding [7] | binding [8] | binding [9] | binding [10] | binding [11] | Kd [12] | Compound
10.7 ± 1.1 µM | no | no | no | yes | yes | yes | yes | yes | yes | yes | 377.4 ± 100.6 nM | CCc1c(C)c2cc3nc(cc4nc(cc5c(CC)c(C)c(cc1[nH]2)n5C)C(C)=C4CCC(=O)O)C(CCC(=O)O)=C3C
– | – | – | – | yes | yes | – | – | – | – | – | – | Cc1ccc2c(c1)sc(-c1ccc(N(C)C)cc1)[n+]2C
